Patent US10023593B2, “ALK kinase inhibitor, and preparation method and uses thereof” (BEIJING PEARL BIOTECHNOLOGY LIMITED LIABILITY COMPANY, priority 2014, dated 2018)

Key:
NCI-H2228 cell line = assay: CellTiter-Glo cell proliferation inhibition on NCI-H2228 cell line; format: cell-based; conditions: Homo sapiens, NCI-H2228, 96 h, NCI-H2228 cells, 5000 cells/well, 4 days drug treatment
Method in brief: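 NCI-H2228 cells, 5000/well in RPMI-1640 + 10% FBS, treated with compounds 2 h after seeding (0.5% DMSO final) for 4 days at 37° C. Viability by CellTiter-Glo luminescence; inhibition relative to DMSO control, IC50 from curve fit.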

Karpas-299 cell line = assay: CellTiter-Glo cell proliferation inhibition on Karpas-299 cell line; format: cell-based; conditions: Homo sapiens, 96 h, Karpas-299 cells, 5000 cells/well, 4 days drug treatment
Experimental: 4. Cell Proliferation Inhibitory Activities of the Compounds of the Present Invention on Karpas-299 Cell Line
? experimental method ? CellTiter-Glo® Luminescent Cell Viability Assay kit from Promega company was used to detect cell proliferation inhibitory activities of the compounds on Karpas-299 cell line.
? instrument ? Envision 2104 plate reader from PerKinElmer company; Vi-Cell XR cell counter from Beckman Counter company; MCO-18AIC CO2 incubator from SANYO company.
? experiment material ? CellTiter-Glo® Luminescent Cell Viability Assay Kit (Promega company, catalog No. G7573); Karpas-299 cell line (DSMZ, catalog No. ACC31); RPMI-1640 medium (HyClone company, catalog No. SH30809.01B); fetal bovine serum (FBS) (Gibco company, catalog No. 10099-141); PBS (HyClone company, catalog No. SH30256.01B); 96 wells cell culture plate (Corning company, catalog No. 3610); DMSO (AMRESCO company, catalog No. 0231); 96 wells plates (for diluting compounds) (CITOTEST company, catalog No. Ref36020096D);
? experimental condition ? Karpas-299 cells in exponential growth phase were collected and viable cells were counted by Vi-Cell XR cell counter. Cell suspension was adjusted to 62500 cells/ml with culture medium (RPMI-1640+10% FBS). 80 μl cell suspension was added into each well of 96 wells cell culture plate so that so that the final cell number of Karpas-299 cells was 5000 cells/well. The cells were cultivated in an incubator with an atmosphere of 37° C., 5% CO2 and 95% humidity for 2 hours and then each well was added with 20 μl compounds in RPMI-1640 medium solution (the final concentration of DMSO was 0.5%). 4 days after drug treatment, each well was added with 50 μl CellTiter-Glo solution which was previously thawed and equilibrated to room temperature, and mixed for 2 minutes with microplate shaker. After placing at room temperature for 10 minutes, luminescence reading value was measured with PerkinElmer Envision 2104 plate reader and the data was analyzed.
? tested samples ? Compounds of the examples.
Luminescence value of DMSO solvent control (Vvehicle control, which is the mean luminescence value from DMSO solvent control group)
Tested luminescence value (Vsample, which is the luminescence value from given concentration of compounds group) Inhibition rate (%)=(1−Vsample/Vvehicle control)×100
(§1) ? data processing ? IC50 of compounds was calculated by using XLfit program in Excel.

cytochrome P450 2C19 = cytochrome P450 2C19 (Homo sapiens, UniProt P33261); assay: Inhibitory activity on cytochrome P450 2C19; format: in vitro ADME; conditions: no significant inhibition
cytochrome P450 3A4 = cytochrome P450 3A4 (Homo sapiens, UniProt P08684); assay: Inhibitory activity on cytochrome P450 3A4; format: in vitro ADME; conditions: no significant inhibition
cytochrome P450 2C9 = cytochrome P450 2C9 (Homo sapiens, UniProt P11712); assay: Inhibitory activity on cytochrome P450 2C9; format: in vitro ADME; conditions: no significant inhibition
cytochrome P450 2D6 = cytochrome P450 2D6 (Homo sapiens, UniProt P10635); assay: Inhibitory activity on cytochrome P450 2D6; format: in vitro ADME; conditions: no significant inhibition
cytochrome P450 1A2 = target: T1, cytochrome P450 1A2 (Homo sapiens, UniProt P05177); assay: Inhibitory activity on cytochrome P450 1A2; format: in vitro ADME; conditions: no significant inhibition
T1 sequence (P05177 1-516): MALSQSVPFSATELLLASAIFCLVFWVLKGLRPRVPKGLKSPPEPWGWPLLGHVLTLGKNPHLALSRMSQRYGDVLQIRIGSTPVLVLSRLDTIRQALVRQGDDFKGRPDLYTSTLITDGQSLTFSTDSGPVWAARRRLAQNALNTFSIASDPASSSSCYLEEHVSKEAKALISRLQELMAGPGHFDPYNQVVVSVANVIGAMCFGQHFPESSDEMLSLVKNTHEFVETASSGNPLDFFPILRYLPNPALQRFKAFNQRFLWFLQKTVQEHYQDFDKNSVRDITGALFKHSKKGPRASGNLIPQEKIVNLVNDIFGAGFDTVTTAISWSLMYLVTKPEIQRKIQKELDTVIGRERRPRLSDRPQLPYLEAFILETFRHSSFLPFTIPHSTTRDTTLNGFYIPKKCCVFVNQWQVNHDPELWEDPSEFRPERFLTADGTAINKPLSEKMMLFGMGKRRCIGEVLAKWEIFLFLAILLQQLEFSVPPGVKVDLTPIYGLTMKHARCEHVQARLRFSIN

L1196M mutant ALK kinase = target: T2, L1196M mutant ALK kinase (Homo sapiens, UniProt Q9UM73, L1196M); assay: HTRF KinEASE-TK assay, inhibitory activity on L1196M mutant ALK kinase; format: biochemical; conditions: L1196M mutant ALK 1 ng/μl, substrate 1 μM, ATP 5 μM, 30° C. 35 minutes, read-out: Inhibition on ALK kinases (L1196M mutant), IC50
T2 construct: purchased Sino-US Crown Bioscience, Inc. batch number ALKm_20110923
Source text: 2. Inhibitory Activities of the Compounds of the Present Invention on L1196M Mutant ALK Kinases
? experimental method ? HTRF KinEASE™-TK Assay kit from Cisbio company was used to detect inhibitory activities of the compounds on L1196M mutant ALK kinases.
(§2) ? instrument ? Envision 2104 plate reader from PerKinElmer company.
(§3) ? experiment material ? HTRF KinEASE™-TK Assay Kit (Cisbio company, catalog No. 62TK0PEC); L1196M mutant ALK kinase (produced by Sino-US Crown Bioscience, Inc., batch number ALKm_20110923); DTT (Gibco BRL company, catalog No. 15508-012); MgCl2 (Sigma Aldrich company, catalog No. M-2670); ATP (Sigma Aldrich company, catalog No. A-7699, batch number 051M7014V); DMSO (AMRESCO company, catalog No. 0231); EDTA (AMRESCO company, catalog No. 0105); 96 wells plates (for diluting compounds) (CITOTEST company, catalog No. Ref36020096D); OptiPlate™-384 (White), PerkinElmer company, catalog No. P12-004)
(§4) ? experimental condition ? Compounds (the final concentration of DMSO was 1%), the reaction substrate (the final concentration was 1 μM), ATP (the final concentration was 5 μM), and L1196M mutant ALK kinases (the final concentration was 1 ng/μl) were mixed respectively in a final volume of 10 μl reaction system (containing 5 mM MgCl2, 1× Kinase buffer, and 1 mM DTT). The mixture was reacted at 30° C. for 35 minutes after shaking for 30 seconds. After completion of the reaction, each well was added with 5 μl Sa-XL665 and 5 μl TK Antibody-Eu(K), and placed in the dark for 60 minutes to end the reaction after uniform mixing. The data was read from PerkinElmer EnVision plate reader ([…]), the 665/615 ratio was calculated, and the data was analyzed.
(§5) ? tested samples ? Compounds from the examples.
(§6) ? data analysis ? Minimum 665/615 ratio (Rmin, 665/615 ratio under the condition that 10.4 μM positive control drug LDK-378 was added)
(§7) Maximum 665/615 ratio (Rmax, 665/615 ratio under the condition that no compound was added)
(§8) Tested 665/615 ratio (Rcompound, 665/615 ratio under the condition that a given concentration of compound was added) Inhibition rate (%)=[1−(Rcompound−Rmin)/(Rmax−Rmin)]×100
as §1

Wild Type ALK kinase = target: T3, Wild Type ALK kinase (Homo sapiens, UniProt Q9UM73); assay: HTRF KinEASE-TK assay, inhibitory activity on wild type ALK kinase; format: biochemical; conditions: wild type ALK 1 ng/μl, substrate 1 μM, 30° C. 35 minutes, read-out: Inhibition on ALK kinases (wildtype), IC50
T3 construct: purchased Sino-US Crown Bioscience, Inc. batch number ALK 20110607
Source text: 1. Inhibitory Activities of the Compounds of the Present Invention on Wild Type ALK Kinases
? experimental method ? HTRF KinEASE™-TK Assay kit from Cisbio company was used to detect inhibitory activities of the compounds on wildtype ALK kinases (wild type ALK kinases).
as §2
as §3, with “Wild Type” for “L1196M mutant”, “ALK 20110607);” for “ALKm_20110923);”, “A-7699);” for “A-7699, batch number 051M7014V);”
as §4, with “[…]),” for “5 μM),”, “Wildtype” for “L1196M mutant”
as §5, §6, §7, §8, §1

T2 sequence (Q9UM73 19-1620 L1196M): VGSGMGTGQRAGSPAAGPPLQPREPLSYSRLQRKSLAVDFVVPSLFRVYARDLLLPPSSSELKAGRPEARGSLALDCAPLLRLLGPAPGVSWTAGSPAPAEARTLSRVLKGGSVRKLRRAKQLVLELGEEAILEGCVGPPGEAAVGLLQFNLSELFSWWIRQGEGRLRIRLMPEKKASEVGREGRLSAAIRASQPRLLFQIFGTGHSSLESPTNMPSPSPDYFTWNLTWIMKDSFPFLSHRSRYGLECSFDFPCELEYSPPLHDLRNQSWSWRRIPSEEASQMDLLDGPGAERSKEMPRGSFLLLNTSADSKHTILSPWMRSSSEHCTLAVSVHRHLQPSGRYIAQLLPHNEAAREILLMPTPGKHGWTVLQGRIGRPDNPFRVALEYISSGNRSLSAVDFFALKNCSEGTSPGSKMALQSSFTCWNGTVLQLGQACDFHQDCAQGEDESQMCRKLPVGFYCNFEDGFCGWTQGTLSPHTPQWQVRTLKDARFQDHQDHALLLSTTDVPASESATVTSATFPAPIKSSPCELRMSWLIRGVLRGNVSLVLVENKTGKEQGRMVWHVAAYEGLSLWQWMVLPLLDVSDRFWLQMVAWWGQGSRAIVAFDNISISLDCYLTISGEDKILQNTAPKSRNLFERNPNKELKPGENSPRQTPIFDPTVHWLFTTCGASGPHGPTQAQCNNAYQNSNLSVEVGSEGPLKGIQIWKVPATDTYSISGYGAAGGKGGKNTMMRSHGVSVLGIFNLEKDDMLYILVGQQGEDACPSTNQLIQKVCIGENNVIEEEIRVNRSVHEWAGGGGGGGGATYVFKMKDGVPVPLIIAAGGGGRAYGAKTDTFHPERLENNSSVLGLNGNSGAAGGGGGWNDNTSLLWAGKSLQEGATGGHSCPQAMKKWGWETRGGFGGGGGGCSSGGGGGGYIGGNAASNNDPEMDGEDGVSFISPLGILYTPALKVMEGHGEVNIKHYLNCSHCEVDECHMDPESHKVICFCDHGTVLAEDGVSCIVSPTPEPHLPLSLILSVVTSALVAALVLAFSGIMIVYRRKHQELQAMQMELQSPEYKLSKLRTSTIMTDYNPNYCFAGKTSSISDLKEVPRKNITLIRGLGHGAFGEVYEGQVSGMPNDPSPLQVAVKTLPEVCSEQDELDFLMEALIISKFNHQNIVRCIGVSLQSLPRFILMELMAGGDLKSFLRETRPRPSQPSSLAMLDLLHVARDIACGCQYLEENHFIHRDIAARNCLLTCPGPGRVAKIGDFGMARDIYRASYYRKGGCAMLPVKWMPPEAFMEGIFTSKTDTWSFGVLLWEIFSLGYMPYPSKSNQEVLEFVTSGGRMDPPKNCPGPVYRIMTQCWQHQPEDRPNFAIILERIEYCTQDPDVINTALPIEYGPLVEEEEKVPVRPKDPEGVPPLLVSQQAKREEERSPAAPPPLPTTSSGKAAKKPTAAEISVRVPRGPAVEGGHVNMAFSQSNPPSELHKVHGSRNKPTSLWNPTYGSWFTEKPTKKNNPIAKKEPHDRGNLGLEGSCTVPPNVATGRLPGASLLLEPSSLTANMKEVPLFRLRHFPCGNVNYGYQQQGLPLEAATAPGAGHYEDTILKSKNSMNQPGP
T3 sequence (Q9UM73 19-1620): as the sequence (Q9UM73 19-1620 L1196M) above, with M1178L counted along it
Sequence of cytochrome P450 2C9 (P11712 whole entry): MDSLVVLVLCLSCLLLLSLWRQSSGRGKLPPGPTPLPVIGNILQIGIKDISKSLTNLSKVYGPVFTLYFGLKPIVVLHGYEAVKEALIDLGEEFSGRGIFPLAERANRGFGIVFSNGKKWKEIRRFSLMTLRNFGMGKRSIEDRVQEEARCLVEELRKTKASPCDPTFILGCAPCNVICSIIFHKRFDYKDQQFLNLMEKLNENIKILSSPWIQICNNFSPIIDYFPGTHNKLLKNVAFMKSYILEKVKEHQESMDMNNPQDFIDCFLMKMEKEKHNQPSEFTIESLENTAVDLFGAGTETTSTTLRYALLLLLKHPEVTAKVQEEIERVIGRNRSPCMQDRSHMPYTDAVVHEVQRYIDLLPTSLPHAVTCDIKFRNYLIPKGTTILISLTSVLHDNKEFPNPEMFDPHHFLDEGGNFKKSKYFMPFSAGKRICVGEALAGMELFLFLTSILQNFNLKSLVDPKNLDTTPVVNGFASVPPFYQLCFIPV
Sequence of cytochrome P450 2D6 (P10635 whole entry): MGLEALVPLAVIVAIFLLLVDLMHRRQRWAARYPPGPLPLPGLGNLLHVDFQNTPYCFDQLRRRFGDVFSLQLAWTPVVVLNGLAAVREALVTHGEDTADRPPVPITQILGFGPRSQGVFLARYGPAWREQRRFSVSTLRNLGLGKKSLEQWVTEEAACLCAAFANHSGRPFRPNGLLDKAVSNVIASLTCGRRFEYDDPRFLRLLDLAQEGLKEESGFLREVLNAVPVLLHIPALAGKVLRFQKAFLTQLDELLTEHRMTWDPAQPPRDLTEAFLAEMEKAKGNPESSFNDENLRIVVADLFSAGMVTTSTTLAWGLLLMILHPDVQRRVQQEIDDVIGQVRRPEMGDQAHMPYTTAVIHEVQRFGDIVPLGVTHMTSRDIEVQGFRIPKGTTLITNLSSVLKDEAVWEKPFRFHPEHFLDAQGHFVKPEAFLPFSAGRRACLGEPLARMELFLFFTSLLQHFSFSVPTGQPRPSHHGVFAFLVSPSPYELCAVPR
Sequence of cytochrome P450 2C19 (P33261 whole entry): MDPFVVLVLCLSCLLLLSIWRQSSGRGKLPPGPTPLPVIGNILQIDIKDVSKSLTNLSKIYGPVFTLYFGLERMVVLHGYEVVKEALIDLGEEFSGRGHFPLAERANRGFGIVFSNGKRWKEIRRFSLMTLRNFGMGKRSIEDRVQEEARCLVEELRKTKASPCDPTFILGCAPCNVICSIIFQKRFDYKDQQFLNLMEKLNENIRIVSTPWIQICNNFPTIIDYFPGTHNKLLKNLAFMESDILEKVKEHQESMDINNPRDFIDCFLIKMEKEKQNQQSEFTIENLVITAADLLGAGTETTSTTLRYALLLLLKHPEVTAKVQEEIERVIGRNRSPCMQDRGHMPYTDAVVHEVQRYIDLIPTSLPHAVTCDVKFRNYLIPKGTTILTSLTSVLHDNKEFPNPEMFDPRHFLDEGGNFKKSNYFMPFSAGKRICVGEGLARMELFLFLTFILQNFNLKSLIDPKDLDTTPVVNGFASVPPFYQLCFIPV
Sequence of cytochrome P450 3A4 (P08684 whole entry): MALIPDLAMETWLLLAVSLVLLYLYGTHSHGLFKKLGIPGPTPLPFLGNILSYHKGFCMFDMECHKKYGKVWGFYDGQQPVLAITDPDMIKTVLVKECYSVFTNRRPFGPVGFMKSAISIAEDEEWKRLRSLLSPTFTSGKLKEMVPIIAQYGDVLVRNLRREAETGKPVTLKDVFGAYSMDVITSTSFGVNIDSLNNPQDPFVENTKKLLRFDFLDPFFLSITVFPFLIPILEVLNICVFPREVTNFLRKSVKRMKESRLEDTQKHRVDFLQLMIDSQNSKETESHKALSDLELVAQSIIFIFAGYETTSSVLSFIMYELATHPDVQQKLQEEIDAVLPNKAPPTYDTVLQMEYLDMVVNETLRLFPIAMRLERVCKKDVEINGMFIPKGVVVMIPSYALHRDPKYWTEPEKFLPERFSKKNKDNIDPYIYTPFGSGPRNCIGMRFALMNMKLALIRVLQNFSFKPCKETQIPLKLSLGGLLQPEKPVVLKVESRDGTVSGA

COC1CN(C)CCC1c1cc(OC2CC2)c(Nc2ncc(Cl)c(Nc3cn(C)nc3S(=O)(=O)CC(C)C)n2)cc1C (centres unmarked) [Final product 59]
IC50 (NCI-H2228 cell line): 156 nM | IC50 (Karpas-299 cell line): 52 nM

Cc1cc(Nc2ncc(Cl)c(Nc3cn(C)nc3S(=O)(=O)C(C)C)n2)c(OC2CC2)cc1C1CCCN(C)C1 (centres unmarked) [Final product 60]
IC50 (NCI-H2228 cell line): 28 nM | IC50 (cytochrome P450 2C19): > 10000 nM | IC50 (cytochrome P450 3A4): > 10000 nM | IC50 (cytochrome P450 2C9): > 10000 nM | IC50 (cytochrome P450 2D6): > 10000 nM | IC50 (cytochrome P450 1A2): > 10000 nM

COCCN1CCC(c2cc(OC3CC3)c(Nc3ncc(Cl)c(Nc4cn(C)nc4S(=O)(=O)CC(C)C)n3)cc2C)CC1 [Final product 83]
IC50 (NCI-H2228 cell line): 53 nM | IC50 (Karpas-299 cell line): 11 nM

Cc1cc(Nc2ncc(Cl)c(Nc3cn(C)nc3S(=O)(=O)C(C)C)n2)c(OC2CC2)cc1C1CCN(C)C(C)(C)C1 (centres unmarked) [Final product 100]
IC50 (NCI-H2228 cell line): 61 nM | IC50 (Karpas-299 cell line): 6 nM

Cc1cc(Nc2ncc(Cl)c(Nc3cn(C)nc3S(=O)(=O)C(C)C)n2)c(OC2CC2)cc1C1CCN(C)C(=O)C1 (centres unmarked) [Final product 103]
IC50 (NCI-H2228 cell line): 66 nM | IC50 (Karpas-299 cell line): 10 nM

Cc1cc(Nc2ncc(C#N)c(Nc3cn(C)nc3S(=O)(=O)C(C)C)n2)c(OC2CC2)cc1C1CCN(C)CC1 [Final product 210, N^2-[2-cyclopropoxy-4-(1-methyl-piperidin-4-yl)-5-methyl-phenyl]-N^4-[1-methyl-3-(isopropylsulfonyl)-1H-pyrazol-4-yl]-5-(cyano)pyrimidin-2,4-diamine]
IC50 (NCI-H2228 cell line): 87 nM | IC50 (L1196M mutant ALK kinase): 4 nM | IC50 (Wild Type ALK kinase): 2 nM

Cc1cc(Nc2ncc(Cl)c(Nc3cn(C)nc3C#N)n2)c(OC2CC2)cc1C1CCN(C)CC1 [Final product 211, 5-chloro-N^2-[2-cyclopropoxy-4-(1-methyl-piperidin-4-yl)-5-methyl-phenyl]-N^4-[1-methyl-3-cyano-1H-pyrazol-4-yl]-pyrimidin-2,4-diamine]
IC50 (NCI-H2228 cell line): 272 nM | IC50 (L1196M mutant ALK kinase): 11 nM | IC50 (Wild Type ALK kinase): 3 nM

Cc1cc(Nc2nc(Nc3cc(C)c(C4CCN(C)CC4)cc3OC(C)C)ncc2Cl)n[nH]1 [Final product 212, 5-chloro-N^2-[2-isopropoxy-4-(1-methyl-piperidin-4-yl)-5-methyl-phenyl]-N^4-[5-methyl-1H-pyrazol-3-yl]-pyrimidin-2,4-diamine, reference compound]
IC50 (NCI-H2228 cell line): 725 nM | IC50 (L1196M mutant ALK kinase): 37 nM | IC50 (Wild Type ALK kinase): 13 nM

Cc1cc(Nc2nc(Nc3cc(C)c(C4CCN(C(C)C)CC4)cc3C)ncc2Cl)n[nH]1 [Final product 213, reference compound]
IC50 (NCI-H2228 cell line): 964 nM | IC50 (L1196M mutant ALK kinase): 22 nM | IC50 (Wild Type ALK kinase): 19 nM

Cc1cc(Nc2nc(Nc3cc(C)c(C4CCCNC4)cc3C)ncc2Cl)n[nH]1 (centres unmarked) [Final product 214, reference compound]
IC50 (NCI-H2228 cell line): 1240 nM | IC50 (L1196M mutant ALK kinase): 54 nM | IC50 (Wild Type ALK kinase): 22 nM

Cc1cc(Nc2nc(Nc3cc(C)c(C4CCN(CCO)CC4)cc3C)ncc2Cl)n[nH]1 [Final product 215, reference compound]
IC50 (NCI-H2228 cell line): 1040 nM | IC50 (L1196M mutant ALK kinase): 39 nM | IC50 (Wild Type ALK kinase): 28 nM

CNC(=O)CN1CCC(c2cc(OC)c(Nc3ncc(Cl)c(Nc4cc(C)n[nH]4)n3)cc2C)CC1 [Final product 216, reference compound]
IC50 (NCI-H2228 cell line): 948 nM | IC50 (L1196M mutant ALK kinase): 28 nM | IC50 (Wild Type ALK kinase): 17 nM

Cc1cc(Nc2nc(Nc3cc(C)c(C4CCN(S(C)(=O)=O)CC4)cc3C)ncc2Cl)n[nH]1 [Final product 217, reference compound]
IC50 (NCI-H2228 cell line): 1130 nM | IC50 (L1196M mutant ALK kinase): 69 nM | IC50 (Wild Type ALK kinase): 20 nM

Cc1cc(Nc2nc(Nc3cc(C)c([C@H]4CC[C@H](N5CCN(C)CC5)CC4)cc3F)ncc2Cl)[nH]n1 [Final product 218, reference compound]
IC50 (NCI-H2228 cell line): 1070 nM | IC50 (L1196M mutant ALK kinase): 49 nM | IC50 (Wild Type ALK kinase): 27 nM
